The values that follow come from US20260001910A1, “PEPTIDES AND USES THEREOF” (PreveCeutical Medical Inc., priority 2021, published 2026).

Like-named read-outs stand apart in the source and are kept apart here.

The text on data set [1]: (§1) The MTT (3-[4.5-dimethylthiazol-2-yl]-2,5=diphenyl tetrazolium bromide) assay is based on a process undertaken by living cells, involving the conversion of MTT into formazan crystals. This assay is used routinely to measure the in vitro cytotoxic effects of drugs on cell lines or primary patient cells (Van Meerloo et al., 2011).
(§2) The glioblastoma multiforme (GBM) cell lines used were U87 and U251 cells and patient derived cells grown as oncospheres (081024 cells). Human adherent GBM cell lines U87 and U251 were cultured in RPMI medium (Life Technologies Melbourne Australia) supplemented with 5% v/v FBS, 100 U/mL penicillin and 100 μg/mL streptomycin. 081024 cells were cultured in NeuroCult™ NS-A Proliferation medium with 0.2% (v/v) hepain, 20 ng/mL EGF and 10 ng/ml FGF.
(§3) 8×10^3 U87 and 7×10^3 U251 cells per well were seeded in 96 well plates in 200 μL serum-containing RPMI medium and incubated at 37° C. with 5% CO2 for 24 hours. After one wash with serum-free medium, 100 μL serum-free medium with different concentration of peptide SEQ ID NO:1 was added to each well. After 48 hours incubation, 10 μL of 0.5 mg/mL MTT was added and incubated for 2 hours at 37° C. Formazan crystals were dissolved by 200 μL/well dimethyl sulfoxide (DMSO) and shaking for 15 minutes. The UV absorbance was read with an iMark™ microplate absorbance reader at 595 nm (Bio-Rad Laboratories). Background absorbance was subtracted and results expressed as the % viability of control (untreated cells).

From the text in data set [2]: as §1, §2, §3
The source holds these as a separate data set.

From the text in data set [3]: as §1, §2, §3
This is another data set of the same source.

Data set [4] relates to U87, U251 and 081024 cells. The conditions noted are these: MTT, all three GBM cell lines.
From the text: as §1, §2, §3

For the next data set, the system named is uPA. Briefly: Casein-plasminogen zymography of conditioned media (uPA production). The class given is cell-based, human. The following applies: for uPA production: conditioned medium, compared to no-peptide control. The source says:
To assess whether the peptide SEQ ID NO. 1 impacted MMP-2, MMP-9 and uPA production Zymography was used.
Zymography is a technique for studying hydrolytic enzymes on the basis of substrate degradation (Vandooren, J. et al. 2013). The in-gel zymography hydrolytic enzymes are separated by their molecular weights and detected by their ability to degrade a substrate. To detect the activity of MMP-2 and MMP-9 in various cell lines, conditioned media were collected in 3 independent experiments and analysed by gelatin zymography to quantify the level of gelatin digestion, which reflects MMP-2 and MMP-9 activity and production. Cascin-Plasminogen zymography was conducted to determine the activity level of uPA in the conditioned medium from various cell lines. Active uPA converts plasminogen into plasmin which then digests casein, thus clear bands where digestion of casein have occurred indirectly represent uPA activity.
The effect of the peptides on matrix protease production was tested using in-gel zymography. If the substrate included in the gel is gelatin, the enzymes detected are gelatinases: MMP-2 and MMP-9 (the latter is often of low abundance). If the gel contains casein and plasminogen, the enzymes tested are urokinase plasminogen activators (uPA); uPA is a therapeutic target in GBM.
An equal amount of protein from each sample was mixed with 5 μL of Laemmli buffer (0.01% Bromophenol Blue (W/V), 5% SDS (W/V), 22% glycerol (V/V), 14% 0.5 M Tris pH 6.8 (V/V)) and loaded onto a 10% polyacrylamide gel co-polymerized with 1 mg/ml of gelatin, and electrophoresed at 120V for 2 hours on ice. The gel was incubated in […] solution (Triton X-100 2.5% (V/V), 1 M Tris pH 7.5 5% (V/V), 0.5 M CaCl2) 1% (W/V) at room temperature overnight on an orbital shaker. The gel was incubated in a second solution for 3 hours at 37° C. The gel was then stained with Coomassie blue solution (Coomassie blue 0.25%, methanol 45%, acetic acid 10%) and destained in methanol 25% (V/V), acetic acid 10% (V/V) destaining solution until clear bands against the dark background appeared around 72 kDa and 95 kDa, representing MMP-2 and MMP-9 activity, respectively. Clear bands around 50 kDa appeared against the dark background representing uPA activity. The gels were scanned, and uPA, MMP-2 and MMP-9 were quantified by densitometry using NIH Image J software.
SEQ ID NO. 1 was compared to a control containing no peptide to evaluate whether the peptide can reduce the production of matrix proteinases. A reduction in the production of matrix proteinases may be anticipated to result in comparatively less degradation of the extra-cellular matrix and so this could be one pathway by which the invasion potential could be reduced.

Another data set concerns the target T1, recombinant MMP-2 (Homo sapiens, UniProt P08253).
T1 construct: purchased ab139446
Put plainly: MMP-2 Inhibitor Screening Assay Kit (colorimetric). Type of data set: biochemical. As to the method: MMP-2 is an important target for inhibitor screening due to its involvement in cancer growth, angiogenesis, and metastasis. The MMP-2 screening assay was carried out with a commercially available MMP-2 Inhibitor Screening Assay Kit (Colorimetric, Catalog: ab139446) based on the manufacturers protocol. This assay is based on quantification of recombinant MMP-2 activity using a colorimetric assay (MMP-2 degrades a chromogenic substrate). The assay provides NNGH (N-isobutyl-N-(4-methoxyphenylsulfonyl) glycyl hydroxamic acid), a small molecule inhibitor, as a positive control (NNGH). […] Each determination was run in duplicate.
Briefly, MMP Substrate and MMP Inhibitor were warmed to room temperature to thaw DMSO. MMP Inhibitor (NNGH), MMP-2 substrate and MMP-2 enzyme were diluted with assay buffer to required concentration. 20 μL of MMP-2 enzyme and MMP-2 inhibitor (peptides, Chlorotoxin and NNGH) was added, then 50 μL of assay buffer was added and the reaction mixture incubated at 37° C. for 1 h. After incubation, 10 μL of MMP Substrate was added to start reaction. The reactions were continuously read at 412 nm in a microplate reader. Data was recorded at 1 min. time intervals for 10 to 20 min. The data as was plotted as optical density (OD) versus time for each sample. The reaction velocity (V) was obtained in OD/min: determine the slope of a line fit to the linear portion of the data plot using an appropriate routine. Then using the equation above the inhibitor % activity remaining was calculated. The control was without inhibitor.

In general, viability refers to a read-out of living cells in per cent, often relative to untreated cells.

T1 sequence (P08253 110-446 limits assumed): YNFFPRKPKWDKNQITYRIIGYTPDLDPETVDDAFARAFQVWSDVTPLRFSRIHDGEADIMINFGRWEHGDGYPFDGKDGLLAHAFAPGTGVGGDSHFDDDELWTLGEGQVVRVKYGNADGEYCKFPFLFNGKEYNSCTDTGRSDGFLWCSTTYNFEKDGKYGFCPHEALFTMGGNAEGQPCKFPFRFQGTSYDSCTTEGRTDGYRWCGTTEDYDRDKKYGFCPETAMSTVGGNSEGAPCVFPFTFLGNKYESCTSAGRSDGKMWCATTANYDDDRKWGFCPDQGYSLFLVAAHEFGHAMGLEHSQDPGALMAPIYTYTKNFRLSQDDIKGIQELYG

For the compound `CC(C)C[C@@H](NC(=O)[C@@H](Cc1ccccc1)NC(=O)CNC(=O)CNC(=O)[C@H](N)Cc1ccc(O)cc1)C(=O)N[C@H](CCCNC(=N)N)C(=O)N[C@H](CCCNC(=N)N)C(N)=O` [SEQ ID NO. 1, tyr-Gly-Gly-phe-leu-arg-arg-NH2], the viability at 5 µM came to 97.9% in data set [1], 100% in data set [2] and 95.8% in data set [3]. In addition, the viability at 50 µM in data set [1] turned out to be 101%; in data set [2], 101%; in data set [3], 99.1%. In addition, the viability at 100 µM in data set [1] worked out at 95.9%; in data set [2], 94.4%; in data set [3], 93.4%. The “highest concentration which did not significantly affect cell viability” value in data set [4] came to 0.5 mM. In addition, the uPA production turned out to be 97.57 ± 13.7 in the data set with uPA (081024 cells), 109.1 ± 12.41 in the data set with uPA (U87 cells) and 95.22 ± 12.83 in the data set with uPA (U251 cells). In addition, the “effect on production of uPA (in words)” value in the data set on uPA (overall, versus no-peptide control) is “did not decrease the production”. The activity at 1 µM at recombinant MMP-2 (1 μM, lower % = higher inhibitory activity, read-out: % inhibition (MMP-2 inhibitor screening)) came to 66.4%. For the same compound, the activity at 10 µM on recombinant MMP-2 (10 μM, lower % = higher inhibitory activity, read-out: % inhibition (MMP-2 inhibitor screening)) was 61.8%. Also, the activity at 100 µM on recombinant MMP-2 (100 μM, lower % = higher inhibitory activity, read-out: % inhibition (MMP-2 inhibitor screening)) was 50.4%. In addition, the “ability to inhibit MMP-2 activity (in words)” value at recombinant MMP-2 (1 to 100 μM) was “dose dependent ability to inhibit MMP-2 activity”.
